The source of these data is ChEMBL document CHEMBL1159177, “Novel A-ring cleaved analogs of oleanolic and ursolic acids which affect growth regulation in NRP.152 prostate cells” (Bioorg Med Chem Lett, 1997).

Structures are written as SMILES.

Broadly, the IC50 is the concentration at which inhibition is half-maximal.

The nature of the experiment: In vitro inhibitory concentration against cell proliferation of nonmalignant, nontumerigenic prostate cells (NRP.152). The format is functional, cell-based. Particulars: Rattus norvegicus.
As to `C=C(C)[C@@H]1CC[C@]2(C)[C@H](CC=C3C4CC(C)(C)CC[C@]4(C(=O)O)CC[C@]32C)[C@@]1(C)CCC(=O)O` (some centres not stated), the IC50 was above 5 µM.
With `C[C@@H]1CC[C@]2(C(=O)O)CC[C@]3(C)C(=CC[C@@H]4[C@@]5(C)CC[C@H](O)C(C)(C)[C@@H]5CC[C@]43C)C2[C@H]1C` (some centres not stated) the figure was above 5 µM; with `C=C(C)[C@@H]1CC[C@]2(C)[C@H](CC=C3C4[C@@H](C)[C@H](C)CC[C@]4(C(=O)O)CC[C@]32C)[C@@]1(C)CCC#N` (some centres not stated), above 5 µM.
As for `CC(C)[C@@H]1CC[C@]2(C)[C@H](CC=C3C4CC(C)(C)CC[C@]4(C(=O)O)CC[C@]32C)[C@@]1(C)CCCN` (some centres not stated), the figure is 0.7 µM.
`C=C(C)[C@@H]1CC[C@]2(C)[C@H](CC=C3C4CC(C)(C)CC[C@]4(C(=O)O)CC[C@]32C)[C@@]1(C)CCC=O` (some centres not stated): the IC50 is 1.5 µM.
As for `C=C(C)[C@@H]1CC[C@]2(C)[C@H](CC=C3C4CC(C)(C)CC[C@]4(C(=O)O)CC[C@]32C)[C@@]1(C)CCC#N` (some centres not stated), the figure is 3.8 µM.
As for `CC(C)[C@@H]1CC[C@]2(C)[C@H](CC=C3C4[C@@H](C)[C@H](C)CC[C@]4(C(=O)O)CC[C@]32C)[C@@]1(C)CCCN` (some centres not stated), the figure is 0.3 µM; as for `C[C@@H]1CC[C@]2(C(=O)O)CC[C@]3(C)C(=CC[C@@H]4[C@@]5(C)CCC(=O)C(C)(C)[C@@H]5CC[C@]43C)C2[C@H]1C` (some centres not stated), above 5 µM.
As for `C=C(C)[C@@H]1CC[C@]2(C)[C@H](CC=C3C4[C@@H](C)[C@H](C)CC[C@]4(C(=O)O)CC[C@]32C)[C@@]1(C)CCC(=O)O` (some centres not stated), the figure is above 5 µM; as for `C=C(C)[C@@H]1CC[C@]2(C)[C@H](CC=C3C4[C@@H](C)[C@H](C)CC[C@]4(C(=O)O)CC[C@]32C)[C@@]1(C)CCC=O` (some centres not stated), 2.4 µM; as for `CC1(C)CC[C@]2(C(=O)O)CC[C@]3(C)C(=CC[C@@H]4[C@@]5(C)CC[C@H](O)C(C)(C)[C@@H]5CC[C@]43C)[C@@H]2C1` [OLEANOLIC_ACID], above 5 µM.
Compound `CC1(C)CC[C@]2(C(=O)O)CC[C@]3(C)C(=CC[C@@H]4[C@@]5(C)CCC(=O)C(C)(C)[C@@H]5CC[C@]43C)[C@@H]2C1` [OLEANONIC ACID] gave an IC50 above 5 µM.
